In ChEMBL document CHEMBL5058564, “EUbOPEN Chemogenomics Library 2 (Incucyte)” (2022):

What was measured:
Format in all cases: toxicity, cell-based
HEK-293T = experiment: Incucyte cell viability with HEK293T; settings: human, 10 µM, compound concentration 10 uM
Fibroblast = experiment: Incucyte cell viability with human fibroblast; settings: 10 µM, compound concentration 10 uM
U2OS = experiment: Incucyte cell viability with U2OS; settings: human, 10 µM, compound concentration 10 uM
[1] = 0 h, replicate number 1, timepoint 0 hours
[2] = 0 h, replicate number 2, timepoint 0 hours
[3] = 18 h, replicate number 1, timepoint 18 hours
[4] = 18 h, replicate number 2, timepoint 18 hours
[5] = 24 h, replicate number 1, timepoint 24 hours
[6] = 24 h, replicate number 2, timepoint 24 hours
[7] = 12 h, replicate number 1, timepoint 12 hours
[8] = 6 h, replicate number 1, timepoint 6 hours
[9] = 6 h, replicate number 2, timepoint 6 hours
[10] = 12 h, replicate number 2, timepoint 12 hours
Also: unitless GR value; below 1 slowed growth and below 0 cell loss.

Row | Structure (SMILES) | Growth Rate (HEK-293T; [1]) | Growth Rate (HEK-293T; [2]) | Growth Rate (HEK-293T; [3]) | Growth Rate (HEK-293T; [4]) | Growth Rate (HEK-293T; [5]) | Growth Rate (HEK-293T; [6]) | Growth Rate (Fibroblast; [1]) | Growth Rate (Fibroblast; [2]) | Growth Rate (Fibroblast; [7]) | Growth Rate (Fibroblast; [3]) | Growth Rate (Fibroblast; [5]) | Growth Rate (U2OS; [3]) | Growth Rate (U2OS; [4]) | Growth Rate (HEK-293T; [8]) | Growth Rate (HEK-293T; [7]) | Growth Rate (HEK-293T; [10]) | Growth Rate (Fibroblast; [8]) | Growth Rate (U2OS; [1]) | Growth Rate (U2OS; [2]) | Growth Rate (U2OS; [8]) | also measured
1 | CN[C@@H]1C[C@H]2O[C@@](C)([C@@H]1OC)n1c3ccccc3c3c4c(c5c6ccccc6n2c5c31)C(=O)NC4 [STAUROSPORINE] | -0.75 | -0.46 | 0.33 | 0.42 | 0.11 | 0.09 | 0.05 | -0.7 | 0.41 | 0 | -0.13 | 0.79 | 0.69 |  |  |  |  |  |  |  | Growth Rate (Fibroblast; [4]): 0.61; Growth Rate (Fibroblast; [6]): 0.35; Growth Rate (U2OS; [5]): 0.65; Growth Rate (U2OS; [6]): 0.49
2 | O=S(=O)(c1ccccc1)N(CC(F)(F)F)c1ccc(C(O)(C(F)(F)F)C(F)(F)F)cc1 [T091317] | 0.85 |  | 0.24 | 0.56 | 0.37 | 0.53 |  |  | -0.09 | -0.3 | -0.32 | 0.98 | 0.76 | 0.85 | 0.42 | 0.75 | 0.72 | 0.14 | -0.29 | 0.74 | Growth Rate (HEK-293T; [9]): 0.77; Growth Rate (Fibroblast; [10]): 0.22; Growth Rate (Fibroblast; [4]): 0.05; Growth Rate (Fibroblast; [6]): 0.05; Growth Rate (U2OS; [10]): 0.83; Growth Rate (U2OS; [6]): 0.81
3 | CCC(=O)NC[C@@H]1C[C@H]1c1cccc2c1CCO2 [TASIMELTEON] | 0.74 | 0.1 | 0.92 | 0.94 | 0.79 | 0.99 |  | 0.97 | 0.48 | 0.69 | 0.48 |  | 0.96 | 0.74 |  |  | 0.35 | -0.37 | -0.06 | 0.85 | Growth Rate (Fibroblast; [9]): 0.26; Growth Rate (Fibroblast; [10]): 0.49; Growth Rate (Fibroblast; [4]): 0.76; Growth Rate (Fibroblast; [6]): 0.82; Growth Rate (U2OS; [9]): 0.51; Growth Rate (U2OS; [7]): 0.97; Growth Rate (U2OS; [10]): 0.81; Growth Rate (U2OS; [6]): 0.96
4 | O=C(N[C@@H]1CC[C@@H](c2cccc(F)c2F)CN(CC(F)(F)F)C1=O)N1CCC(n2c(=O)[nH]c3ncccc32)CC1 [TELCAGEPANT] |  |  | 0.54 | 0.98 | 0.81 |  |  | 0.95 | 0.01 | 0.11 | 0.22 |  | 0.98 | 0.32 | 0.66 | 0.94 | 0.18 |  | -1 | 0.8 | Growth Rate (HEK-293T; [9]): 0.77; Growth Rate (Fibroblast; [9]): -0.28; Growth Rate (Fibroblast; [10]): 0.39; Growth Rate (Fibroblast; [4]): 0.66; Growth Rate (Fibroblast; [6]): 0.72; Growth Rate (U2OS; [5]): 0.86; Growth Rate (U2OS; [6]): 0.95
5 | COc1cc2nc(N3CCN(C(=O)C4CCCO4)CC3)nc(N)c2cc1OC.Cl.O.O (centres undefined) [TERAZOSIN HYDROCHLORIDE] | 0.72 | 0.29 | 0.78 | 0.79 | 0.87 | 0.79 | 0.68 | 0.43 |  |  |  | 0.88 |  | 0.91 | 0.69 | 0.83 |  |  | 0.74 | 0.56 | Growth Rate (Fibroblast; [9]): 0.32; Growth Rate (Fibroblast; [10]): 0.84; Growth Rate (Fibroblast; [4]): 0.8; Growth Rate (Fibroblast; [6]): 0.57; Growth Rate (U2OS; [9]): 0.76; Growth Rate (U2OS; [7]): 0.73; Growth Rate (U2OS; [5]): 0.99
6 | Cc1ccc2c(c1CCC(=O)O)CC[C@@H](NS(=O)(=O)c1ccc(Cl)cc1)C2 [TERUTROBAN] | 0.06 | 0.31 | 0.99 | 0.97 | 0.94 |  | -0.56 | 0 |  |  | 0.83 |  |  | 0.87 |  |  |  | -0.59 | -1 |  | 
7 | Cc1c(Cc2ccc3ccccc3n2)c2cc(F)ccc2n1CC(=O)O [TIMAPIPRANT] |  | 0.4 | 0.82 |  |  |  | 0.53 | 0.31 | 0.51 | 0.8 | 0.87 | 0.63 | 0.96 |  |  |  | 0.6 |  | -1 | 0.37 | Growth Rate (U2OS; [7]): 0.81
8 | C[N+]1(C)[C@@H]2C[C@@H](OC(=O)C(O)(c3cccs3)c3cccs3)C[C@H]1[C@@H]1O[C@@H]12.O.[Br-] [TIOTROPIUM BROMIDE] | 0.54 | -0.14 | 0.7 | 0.99 | 0.79 | 0.91 |  | -0.05 | 0.71 | 1 | 0.95 | 0.68 |  | 0.86 | 0.87 |  | -0.47 | 0.04 | 0.9 | 0.61 | Growth Rate (Fibroblast; [10]): 0.99; Growth Rate (Fibroblast; [4]): 0.83; Growth Rate (Fibroblast; [6]): 0.7; Growth Rate (U2OS; [9]): 0.93; Growth Rate (U2OS; [7]): 0.64; Growth Rate (U2OS; [5]): 0.86
9 | Cl.Clc1ccc2nsnc2c1NC1=NCCN1 [TIZANIDINE HYDROCHLORIDE] |  |  |  |  |  |  |  | 0.25 | 0.72 | 0.25 | 0.25 |  |  |  | 1 | 0.61 | -0.29 | 0.36 | -1 | 0.31 | Growth Rate (HEK-293T; [9]): 0.88
10 | Cc1ccc(O)c([C@H](CCN(C(C)C)C(C)C)c2ccccc2)c1.O=C(O)C(O)C(O)C(=O)O [TOLTERODINE TARTRATE] |  | 0.52 |  |  |  |  |  | 0.83 | 0.92 |  |  |  |  | 0.89 | 0.79 |  | 0.59 | -0.73 | 0.94 | 0.98 | 
11 | Nc1cnc(N2CCc3cc(S(=O)(=O)Nc4c(F)cc(Cl)cc4F)cc(N4CCCC4=O)c32)nc1 [TP-020n] | 0.54 | 0.76 | 0.61 | 0.9 | 0.74 | 0.77 | 0.01 | -0.22 |  |  | 0.92 | 0.65 |  | 0.61 | 0.37 | 0.71 |  | -0.04 |  | 0.53 | Growth Rate (U2OS; [7]): 0.72; Growth Rate (U2OS; [5]): 0.66
12 | Cc1ccc(/C(=C\CN2CCCC2)c2ccccn2)cc1 [TRIPROLIDINE] |  |  |  |  |  |  | 0.54 | 0.74 |  | 0.98 | 0.88 | 0.76 | 0.96 |  |  |  | 0.96 |  |  | -0.54 | Growth Rate (HEK-293T; [9]): 0.8; Growth Rate (U2OS; [9]): 0.77; Growth Rate (U2OS; [7]): 0.38; Growth Rate (U2OS; [10]): 0.88; Growth Rate (U2OS; [5]): 0.83; Growth Rate (U2OS; [6]): 0.94
13 | CCN(Cc1ccncc1)C(=O)C(CO)c1ccccc1 (centres undefined) [TROPICAMIDE] | 0.72 |  | 0.93 | 0.83 | 0.88 | 1 | 0.46 | -0.24 |  |  |  |  | 0.92 | 0.92 | 0.97 | 0.95 |  | 0.73 | 0.44 | 0.58 | Growth Rate (U2OS; [10]): 0.99
14 | CCCC(CCC)C(=O)O [VALPROIC ACID] | 0.84 | 0.39 | 0.94 |  | 0.87 |  |  | 0.88 | 0.85 |  |  | 0.9 | 0.81 | 0.68 |  |  | 0.27 | 0.41 | -1 |  | Growth Rate (U2OS; [9]): 0.75; Growth Rate (U2OS; [7]): 0.96
15 | CC(C)(C)c1ccc(S(=O)(=O)Nc2ccc(Cl)cc2C(=O)c2cc[n+]([O-])cc2)cc1 [VERCIRNON] |  |  |  | 0.91 |  |  | 0.29 | 0.25 |  | 1 | 0.69 | 0.78 |  | 0.87 |  | 0.73 |  |  | -1 | 0.94 | Growth Rate (HEK-293T; [9]): 0.35
